Source: patent US12678419B2, “Compounds” (Sitryx Therapeutics Limited, priority 2020, dated 2026)
Where “and” joins values, the source holds several entries; their conditions need not be identical. Equal values may be shown once.

What was measured:
[1] = test system: NRF2 (nuclear factor erythroid 2-related factor 2); experiment: NRF2 +/-GSH activation assay (DiscoverX PathHunter NRF2 translocation kit, U2OS cells); type: cell-based; conditions: for Emax (%) +GSH / Emax (%) −GSH: normalised to dimethyl fumarate high control
[2] = test system: IL-1β cytokine output from THP-1s; experiment: THP-1 AlphaLISA IL-1β cytokine assay; type: cell-based; conditions: LPS then nigericin, Table 1
Protocol: (§1) The cytokine inhibition profiles of compounds of formula (I) were determined in a differentiated THP-1 cell assay. All assays were performed in RPMI-1640 growth medium (Gibco), supplemented with 10% fetal bovine serum (FBS; Gibco), 1% penicillin-streptomycin and 1% sodium pyruvate unless specified otherwise. The IL-1β and IL-6 cytokine inhibition assays were each run in a background of differentiated THP-1 cells as described below. All reagents described were from Sigma-Aldrich unless specified otherwise. Compounds were prepared as 10 mM DMSO stocks.
(§2) THP-1 cells were expanded as a suspension up to 80% confluence in appropriate growth medium. Cells were harvested, suspended, and treated with an appropriate concentration of phorbol 12-myristate 13-acetate (PMA) over a 72 hr period (37° C./5% CO2).
(§3) Following 72 hrs of THP-1 cell incubation, cellular medium was removed and replaced with fresh growth media containing 1% of FBS. Working concentrations of compounds were prepared separately in 10% FBS treated growth medium and pre-incubated with the cells for 30 minutes (37° C./5% CO2). Following the 30 minute compound pre-incubation, THP-1s were treated with an appropriate concentration of LPS and the THP-1s were subsequently incubated for a 24 hr period (37° C./5% CO2). An appropriate final concentration of Nigericin was then dispensed into the THP-1 plates and incubated for 1 hour (37° C./5% CO2) before THP-1 supernatants were harvested and collected in separate polypropylene 96-well holding plates.
(§4) Reagents from each of the IL-1β and IL-6 commercial kits (Perkin Elmer) were prepared and run according to the manufacturer's instructions. Subsequently, fluorescence signal detection in a microplate reader was measured (EnVision® Multilabel Reader, Perkin Elmer).
(§5) Percentage inhibition was calculated per cytokine by normalising the sample data to the high and low controls used within each plate (+/− LPS respectively). Percentage inhibition was then plotted against compound concentration and the 50% inhibitory concentration (IC50) was determined from the resultant concentration-response curve.

mouse hepatocytes = experiment: Hepatocyte stability assay, mouse; type: in vitro ADME; conditions: 10 μM compound
Description: (§6) Defrosted cryo-preserved hepatocytes (viability >70%) were used to determine the metabolic stability of a compound via calculation of intrinsic clearance (Clint; a measure of the removal of a compound from the liver in the absence of blood flow and cell binding). Clearance data are particularly important for in vitro work as they can be used in combination with in vivo data to predict the half-life and oral bioavailability of a drug.
(§7) The metabolic stability in hepatocytes assay involves a time-dependent reaction using both positive and negative controls. The cells were pre-incubated at 37° C. and spiked with test compound (and positive control); samples were taken at pre-determined time intervals were analysed to monitor the change in concentration of the initial drug compound over 60 minutes. A buffer incubation reaction (with no hepatocytes present) acted as a negative control and two cocktail solutions, containing compounds with known high and low clearance values (verapamil/7-hydroxycoumarin and propranolol/diltiazem), acted as positive controls. • 1. The assay was run with a cell concentration of 0.5×10^6 cells/mL in Leibovitz buffer. • 2. All compounds and controls were run in duplicate. • 3. Compound concentration was 10 μM. • 4. All compounds and controls were incubated with both cells and buffer to show turnover was due to hepatic metabolism. • 5. All wells on the incubation plate had 326.7 μL of either cells or buffer added. • 6. Prior to assay, cell and buffer-only incubation plates were preincubated for 10 mins at 37° C. • 7. The assay was initiated by adding compounds, 3.3 μL of 1 mM in 10% DMSO-90% Buffer; final DMSO concentration was 0.1%. • 8. Samples were taken at regular timepoints (0, 5, 10, 20, 40, 60 min) until 60 mins. • 9. Sample volume was 40 μL and was added to 160 μL of crash solvent (acetonitrile with internal standard) and stored on ice. • 10. At the end of the assay, the crash plates were centrifuged at 3500 rpm for 20 mins at 4° C. • 11. 80 μL of clear supernatant was removed and mixed with 80 μL of deionised water before being analysed by LC-MS/MS.
(§8) Raw LC-MS/MS data was exported to, and analysed in, Microsoft Excel for determination of intrinsic clearance. The percentage remaining of a compound was monitored using the peak area of the initial concentration as 100%. Intrinsic clearance and half-life values were calculated using a graph of the natural log of percentage remaining versus the time of reaction in minutes. Half-life (min) and intrinsic clearance (Clint in μL min^−1 10^−6 cells) values were calculated using the gradient of the graph (the elimination rate constant, k) and Equations 1 and 2.

[3] = test system: IL-6 cytokine output from THP-1s; experiment: THP-1 AlphaLISA IL-6 cytokine assay; type: cell-based; conditions: LPS then nigericin, Table 1
Protocol: as §1, §2, §3, §4, §5

human hepatocytes = experiment: Hepatocyte stability assay, human; type: in vitro ADME; conditions: 10 μM compound
Description: as §6, §7, §8

[4] = Hepatocyte stability assay, mouse; type: in vitro ADME; conditions: mouse, cryopreserved hepatocytes, 10 μM compound, read-out: T½
Description: as §6, §7, §8

[5] = Hepatocyte stability assay, human; type: in vitro ADME; conditions: human, cryopreserved hepatocytes, 10 μM compound, read-out: T½
Description: as §6, §7, §8

[6] = Homo sapiens, THP-1, differentiated THP-1 cells

Structure (SMILES)	EC50 ([1]; +GSH)	EC50 ([1]; −GSH)	IC50 ([2]; differentiated THP-1 cells)	Clint (μL min^−1 10^−6 cells) (mouse hepatocytes)	T½ (mouse hepatocytes)	IC50 ([3]; differentiated THP-1 cells)	Clint (μL min^−1 10^−6 cells) (human hepatocytes)	T½ (human hepatocytes)	IC50 [2, 6]	half-life at 10 μM [4]	half-life at 10 μM [5]	IC50 [3, 6]	Emax (%) +GSH ([1]; +GSH)	Emax (%) −GSH ([1]; −GSH)
C=C(CC(=O)OC1CCCc2c(Cl)cc(Cl)cc21)C(=O)OCC(=O)O (single isomer, unassigned; enantiomer 2) [Example 25, 2-((4-((5,7-dichloro-1,2,3,4-tetrahydronaphthalen-1-yl)oxy)-2-methylene-4-oxobutanoyl)oxy)acetic acid (Enantiomer 2)]	10.6 µM	6 µM	4.8 µM	>460 μL min^−1 10^−6 cells	<3 min	6.2 µM	29 μL min^−1 10^−6 cells	58 min	–	–	–	–	147%	205%
C=C(CC(=O)OC1CCc2cc(Cl)cc(Cl)c2C1)C(=O)OCC(=O)O (single isomer, unassigned; enantiomer 1) [Example 10, 2-((4-((6,8-dichloro-1,2,3,4-tetrahydronaphthalen-2-yl)oxy)-2-methylene-4-oxobutanoyl)oxy)acetic acid (Enantiomer 1)]	–	–	–	225 μL min^−1 10^−6 cells	–	–	18 μL min^−1 10^−6 cells	–	6.6 µM	7 min	81 min	–	–	–
C=C(CC(=O)OC1CCc2c(Cl)cc(Cl)cc21)C(=O)OCC(=O)O (single isomer, unassigned; enantiomer 1) [Example 2, 2-((4-((4,6-dichloro-2,3-dihydro-1H-inden-1-yl)oxy)-2-methylene-4-oxobutanoyl)oxy)acetic acid (Enantiomer 1)]	11.4 µM	9 µM	–	51 μL min^−1 10^−6 cells	37 min	–	13 μL min^−1 10^−6 cells	–	4 µM	–	116 min	4.3 µM	166%	196%
C=C(CC(=O)OC1CCc2c(Cl)cc(F)cc21)C(=O)OCC(=O)O (single isomer, unassigned; enantiomer 2) [Example 20, 2-((4-((4-chloro-6-fluoro-2,3-dihydro-1H-inden-1-yl)oxy)-2-methylene-4-oxobutanoyl)oxy)acetic acid (Enantiomer 2)]	31.8 µM	12.9 µM	1.4 µM	>460 μL min^−1 10^−6 cells	<3 min	–	11 μL min^−1 10^−6 cells	125 min	–	–	–	3.9 µM	155%	234%
C=C(CC(=O)OC1CCCc2c(Cl)cc(Cl)cc21)C(=O)OCC(=O)O (single isomer, unassigned; enantiomer 1) [Example 24, 2-((4-((5,7-dichloro-1,2,3,4-tetrahydronaphthalen-1-yl)oxy)-2-methylene-4-oxobutanoyl)oxy)acetic acid (Enantiomer 1)]	5.7 µM	6 µM	–	56 μL min^−1 10^−6 cells	34 min	–	54 μL min^−1 10^−6 cells	–	3.3 µM	–	32 min	4.1 µM	84%	148%
C=C(CC(=O)OC1CCc2c(Cl)cc(Cl)cc21)C(=O)OCC(=O)O (single isomer, unassigned; enantiomer 2) [Example 3, 2-((4-((4,6-dichloro-2,3-dihydro-1H-inden-1-yl)oxy)-2-methylene-4-oxobutanoyl)oxy)acetic acid (Enantiomer 2)]	15.8 µM	9.8 µM	5.6 µM	>460 μL min^−1 10^−6 cells	<3 min	3.6 µM	16 μL min^−1 10^−6 cells	93 min	–	–	–	–	211%	229%

Second part, led by results:

EC50 ([1]; +GSH)	EC50 ([1]; −GSH)	IC50 ([2]; differentiated THP-1 cells)	Clint (μL min^−1 10^−6 cells) (mouse hepatocytes)	T½ (mouse hepatocytes)	IC50 ([3]; differentiated THP-1 cells)	Clint (μL min^−1 10^−6 cells) (human hepatocytes)	T½ (human hepatocytes)	IC50 [2, 6]	half-life at 10 μM [4]	half-life at 10 μM [5]	IC50 [3, 6]	Structure (SMILES)	Emax (%) +GSH ([1]; +GSH)	Emax (%) −GSH ([1]; −GSH)
19.5 µM	10.8 µM	–	431 μL min^−1 10^−6 cells	3 min	–	11 μL min^−1 10^−6 cells	–	12.3 µM	–	140 min	–	C=C(CC(=O)OC1CCc2cc(Cl)c(Cl)cc21)C(=O)OCC(=O)O (single isomer, unassigned; enantiomer 1) [Example 5, 2-((4-((5,6-dichloro-2,3-dihydro-1H-inden-1-yl)oxy)-2-methylene-4-oxobutanoyl)oxy)acetic acid (Enantiomer 1)]	246%	280%
22.5 µM	8 µM	–	49 μL min^−1 10^−6 cells	32 min	7.6 µM	21 μL min^−1 10^−6 cells	–	11.7 µM	–	75 min	–	C=C(CC(=O)OC1CCc2ccc(OC(F)(F)F)cc21)C(=O)OCC(=O)O (single isomer, unassigned; enantiomer 1) [Example 28, 2-((2-methylene-4-oxo-4-((6-(trifluoromethoxy)-2,3-dihydro-1H-inden-1-yl)oxy)butanoyl)oxy)acetic acid (Enantiomer 1)]	139%	160%
18.4 µM	8.7 µM	–	146 μL min^−1 10^−6 cells	–	–	–	–	2.1 µM	10 min	–	–	C=C(CC(=O)OC1CCc2ccc(OC(F)(F)F)cc21)C(=O)OCC(=O)O (stereo not drawn) [Example 18, 2-((2-methylene-4-oxo-4-((6-(trifluoromethoxy)-2,3-dihydro-1H-inden-1-yl)oxy)butanoyl)oxy)acetic acid]	105%	121%
–	–	–	51 μL min^−1 10^−6 cells	24 min	–	9 μL min^−1 10^−6 cells	–	2.4 µM	–	165 min	–	C=C(CC(=O)OC1CCc2c(Br)cc(F)cc21)C(=O)OCC(=O)O (single isomer, unassigned; enantiomer 1) [Example 15, 2-((4-((4-bromo-6-fluoro-2,3-dihydro-1H-inden-1-yl)oxy)-2-methylene-4-oxobutanoyl)oxy)acetic acid (Enantiomer 1)]	–	–
18.7 µM and 25.9 µM	5.9 µM and 11.5 µM	11.4 µM	92 μL min^−1 10^−6 cells	17 min	5.8 µM	10 μL min^−1 10^−6 cells	152 min	–	–	–	–	C=C(CC(=O)OC1CCc2cc(C(F)(F)F)ccc21)C(=O)OCC(=O)O (single isomer, unassigned; enantiomer 2) [Example 29, 2-((2-methylene-4-oxo-4-((5-(trifluoromethyl)-2,3-dihydro-1H-inden-1-yl)oxy)butanoyl)oxy)acetic acid (Enantiomer 2)]	141% and 175%	147% and 211%
